Source: PubChem BioAssay (NCI)
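Tested at 5 concentrations; 48 h exposure; 96-well plates; endpoints linearly interpolated, else capped at highest concentration. The concentration for 50% growth inhibition is given as GI50. TGI is the concentration that stops growth completely.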

Legend:
Test in all cases: NCI anticancer screen, dose series, 48 h
U251 CNS = tested on: U251 CNS
SW-620 colon = tested on: SW-620 colon
OVCAR-8 ovarian = tested on: OVCAR-8 ovarian
NCI-H460 lung = tested on: NCI-H460 lung
M14 melanoma = tested on: M14 melanoma
MOLT-4 leukemia = tested on: MOLT-4 leukemia
NCI-H226 lung = tested on: NCI-H226 lung
OVCAR-5 ovarian = tested on: OVCAR-5 ovarian
K-562 leukemia = tested on: K-562 leukemia
HCT-116 colon = tested on: HCT-116 colon
NCI/ADR-RES ovarian = tested on: NCI/ADR-RES ovarian
A549 NSCLC = tested on: A549 NSCLC
LOX IMVI melanoma = tested on: LOX IMVI melanoma
HL-60(TB) leukemia = tested on: HL-60(TB) leukemia
SK-MEL-5 melanoma = tested on: SK-MEL-5 melanoma
MDA-MB-231 breast = tested on: MDA-MB-231 breast
A498 renal = tested on: A498 renal
HS 578T breast = tested on: HS 578T breast
HOP-62 NSCLC = tested on: HOP-62 NSCLC
ACHN renal = tested on: ACHN renal
SNB-19 CNS = tested on: SNB-19 CNS
RPMI-8226 leukemia = tested on: RPMI-8226 leukemia
MDA-MB-435 = tested on: MDA-MB-435
MCF7 breast = tested on: MCF7 breast
KM12 colon = tested on: KM12 colon
786-0 renal = tested on: 786-0 renal
EKVX NSCLC = tested on: EKVX NSCLC
SN12C renal = tested on: SN12C renal
UO-31 renal = tested on: UO-31 renal
CAKI-1 renal = tested on: CAKI-1 renal
SK-OV-3 ovarian = tested on: SK-OV-3 ovarian
HCT-15 colon = tested on: HCT-15 colon
IGROV1 ovarian = tested on: IGROV1 ovarian
UACC-257 melanoma = tested on: UACC-257 melanoma
SF-295 CNS = tested on: SF-295 CNS
RXF 393 renal = tested on: RXF 393 renal
UACC-62 melanoma = tested on: UACC-62 melanoma
BT-549 breast = tested on: BT-549 breast
NCI-H522 lung = tested on: NCI-H522 lung
OVCAR-4 ovarian = tested on: OVCAR-4 ovarian
HT29 colon = tested on: HT29 colon
TK-10 renal = tested on: TK-10 renal
SR leukemia = tested on: SR leukemia
NCI-H23 lung = tested on: NCI-H23 lung
SNB-75 CNS = tested on: SNB-75 CNS
OVCAR-3 ovarian = tested on: OVCAR-3 ovarian
HOP-92 NSCLC = tested on: HOP-92 NSCLC
PC-3 prostate = tested on: PC-3 prostate
SF-268 CNS = tested on: SF-268 CNS
SK-MEL-28 melanoma = tested on: SK-MEL-28 melanoma
SK-MEL-2 melanoma = tested on: SK-MEL-2 melanoma
COLO 205 colon = tested on: COLO 205 colon
SF-539 CNS = tested on: SF-539 CNS
DU-145 prostate = tested on: DU-145 prostate
HCC-2998 colon = tested on: HCC-2998 colon

CC(C)(C)OC(=O)n1cc(CNC(=S)Nc2ccccc2)c2ccccc21
GI50 (U251 CNS): 4.18 µM | TGI (U251 CNS): 16 µM | GI50 (SW-620 colon): 13.1 µM | TGI (SW-620 colon): 26.2 µM | GI50 (OVCAR-8 ovarian): 16.9 µM | TGI (OVCAR-8 ovarian): 35.4 µM | GI50 (NCI-H460 lung): 9.36 µM | TGI (NCI-H460 lung): 22 µM | GI50 (M14 melanoma): 17.7 µM | TGI (M14 melanoma): 33.3 µM | GI50 (MOLT-4 leukemia): 3.88 µM | TGI (MOLT-4 leukemia): > 100 µM | GI50 (NCI-H226 lung): 14.3 µM | TGI (NCI-H226 lung): 30.7 µM | GI50 (OVCAR-5 ovarian): 16.3 µM | TGI (OVCAR-5 ovarian): 37.6 µM | GI50 (K-562 leukemia): 8.73 µM | TGI (K-562 leukemia): 70.1 µM | GI50 (HCT-116 colon): 15.2 µM | TGI (HCT-116 colon): 30.1 µM | GI50 (NCI/ADR-RES ovarian): 10.8 µM | TGI (NCI/ADR-RES ovarian): 22.7 µM | GI50 (A549 NSCLC): 10.6 µM | TGI (A549 NSCLC): 33.1 µM | GI50 (LOX IMVI melanoma): 11.1 µM | TGI (LOX IMVI melanoma): 23 µM | GI50 (HL-60(TB) leukemia): 11.6 µM | TGI (HL-60(TB) leukemia): 55.3 µM | GI50 (SK-MEL-5 melanoma): 4.51 µM | TGI (SK-MEL-5 melanoma): 16.6 µM | GI50 (MDA-MB-231 breast): 15.5 µM | TGI (MDA-MB-231 breast): 28.8 µM | GI50 (A498 renal): 15.1 µM | TGI (A498 renal): 31.2 µM | GI50 (HS 578T breast): 13.7 µM | TGI (HS 578T breast): 42.2 µM | GI50 (HOP-62 NSCLC): 17.2 µM | TGI (HOP-62 NSCLC): 38 µM | GI50 (ACHN renal): 5.12 µM | TGI (ACHN renal): 19.6 µM | GI50 (SNB-19 CNS): 15.3 µM | TGI (SNB-19 CNS): 61.7 µM | GI50 (RPMI-8226 leukemia): 3.27 µM | TGI (RPMI-8226 leukemia): 16.4 µM | GI50 (MDA-MB-435): 12.2 µM | TGI (MDA-MB-435): 30.1 µM | GI50 (MCF7 breast): 9.02 µM | TGI (MCF7 breast): 48 µM | GI50 (KM12 colon): 5.34 µM | TGI (KM12 colon): 18.4 µM | GI50 (786-0 renal): 17.7 µM | TGI (786-0 renal): 34.5 µM | GI50 (EKVX NSCLC): 4.15 µM | TGI (EKVX NSCLC): 21.5 µM | GI50 (SN12C renal): 15.1 µM | TGI (SN12C renal): 28.4 µM | GI50 (UO-31 renal): 26.5 µM | TGI (UO-31 renal): > 100 µM | GI50 (CAKI-1 renal): 4.68 µM | TGI (CAKI-1 renal): 23.2 µM | GI50 (SK-OV-3 ovarian): 26.4 µM | TGI (SK-OV-3 ovarian): 90.1 µM | GI50 (HCT-15 colon): 10.9 µM | TGI (HCT-15 colon): 22.9 µM | GI50 (IGROV1 ovarian): 27.6 µM | TGI (IGROV1 ovarian): > 100 µM | GI50 (UACC-257 melanoma): 10.9 µM | TGI (UACC-257 melanoma): 30.5 µM | GI50 (SF-295 CNS): 6.04 µM | TGI (SF-295 CNS): 23.4 µM | GI50 (RXF 393 renal): 19.3 µM | TGI (RXF 393 renal): 43.2 µM | GI50 (UACC-62 melanoma): 13.3 µM | TGI (UACC-62 melanoma): 26.1 µM | GI50 (BT-549 breast): 14.5 µM | TGI (BT-549 breast): 32.7 µM | GI50 (NCI-H522 lung): > 100 µM | TGI (NCI-H522 lung): > 100 µM | GI50 (OVCAR-4 ovarian): 49.4 µM | TGI (OVCAR-4 ovarian): > 100 µM | GI50 (HT29 colon): 22.3 µM | TGI (HT29 colon): > 100 µM | GI50 (TK-10 renal): 14.6 µM | TGI (TK-10 renal): 53.9 µM | GI50 (SR leukemia): 5.07 µM | TGI (SR leukemia): > 100 µM | GI50 (NCI-H23 lung): 10.7 µM | TGI (NCI-H23 lung): 24.4 µM | GI50 (SNB-75 CNS): 64.4 µM | TGI (SNB-75 CNS): > 100 µM | GI50 (OVCAR-3 ovarian): 11.7 µM | TGI (OVCAR-3 ovarian): 27.7 µM | GI50 (HOP-92 NSCLC): 8.94 µM | TGI (HOP-92 NSCLC): 25.7 µM | GI50 (PC-3 prostate): 10.5 µM | TGI (PC-3 prostate): 23 µM | GI50 (SF-268 CNS): 11.4 µM | TGI (SF-268 CNS): 33.1 µM | GI50 (SK-MEL-28 melanoma): 27.4 µM | TGI (SK-MEL-28 melanoma): 95.3 µM | GI50 (SK-MEL-2 melanoma): 36.3 µM | TGI (SK-MEL-2 melanoma): > 100 µM | GI50 (COLO 205 colon): 11.3 µM | TGI (COLO 205 colon): 23.4 µM | GI50 (SF-539 CNS): 12.3 µM | TGI (SF-539 CNS): 25.4 µM | GI50 (DU-145 prostate): 7 µM | TGI (DU-145 prostate): 35.4 µM

CCC(C)C1NC(=O)c2nc(oc2-c2ccccc2)-c2csc(n2)-c2csc(n2)-c2nc(oc2C)-c2coc(n2)CNC(=O)C(C(C)CC)NC1=O (stereo not given)
GI50 (U251 CNS): 0.0126 µM | TGI (U251 CNS): 0.0492 µM | TGI (SW-620 colon): 0.0324 µM | GI50 (OVCAR-8 ovarian): 0.0216 µM | TGI (OVCAR-8 ovarian): 0.182 µM | GI50 (NCI-H460 lung): 0.0102 µM | TGI (NCI-H460 lung): 0.0268 µM | GI50 (OVCAR-5 ovarian): 0.0515 µM | TGI (OVCAR-5 ovarian): 0.189 µM | TGI (HCT-116 colon): 0.0335 µM | GI50 (NCI/ADR-RES ovarian): 0.278 µM | TGI (NCI/ADR-RES ovarian): 2.38 µM | GI50 (MDA-MB-231 breast): 0.035 µM | TGI (MDA-MB-231 breast): 0.135 µM | GI50 (A498 renal): 0.16 µM | TGI (A498 renal): 0.343 µM | GI50 (HS 578T breast): 0.0424 µM | TGI (HS 578T breast): 0.218 µM | GI50 (ACHN renal): 0.0188 µM | TGI (ACHN renal): 0.114 µM | GI50 (MDA-MB-435): 0.0464 µM | TGI (MDA-MB-435): 0.163 µM | GI50 (KM12 colon): 0.0223 µM | TGI (KM12 colon): 0.119 µM | GI50 (786-0 renal): 0.0499 µM | TGI (786-0 renal): 0.172 µM | GI50 (UO-31 renal): 0.0515 µM | TGI (UO-31 renal): 0.185 µM | GI50 (CAKI-1 renal): 0.0371 µM | TGI (CAKI-1 renal): 0.151 µM | GI50 (HCC-2998 colon): 0.0543 µM | TGI (HCC-2998 colon): 0.249 µM | GI50 (HCT-15 colon): 0.0361 µM | TGI (HCT-15 colon): 0.18 µM | GI50 (IGROV1 ovarian): 0.0263 µM | TGI (IGROV1 ovarian): 0.122 µM | GI50 (SF-295 CNS): 0.0469 µM | TGI (SF-295 CNS): 0.178 µM | GI50 (RXF 393 renal): 0.0334 µM | TGI (RXF 393 renal): 0.166 µM | GI50 (BT-549 breast): 0.0659 µM | TGI (BT-549 breast): 0.204 µM | GI50 (OVCAR-4 ovarian): 0.0258 µM | TGI (OVCAR-4 ovarian): 0.0982 µM | GI50 (SR leukemia): 0.0327 µM | TGI (SR leukemia): 0.212 µM | GI50 (NCI-H23 lung): 0.04 µM | TGI (NCI-H23 lung): 0.155 µM | GI50 (SNB-75 CNS): 0.0354 µM | TGI (SNB-75 CNS): 0.175 µM | GI50 (OVCAR-3 ovarian): 0.0201 µM | TGI (OVCAR-3 ovarian): 0.0642 µM | GI50 (HOP-92 NSCLC): 0.0198 µM | TGI (HOP-92 NSCLC): 0.134 µM | GI50 (PC-3 prostate): < 0.0137 µM | TGI (PC-3 prostate): 0.116 µM | GI50 (SF-268 CNS): 0.0249 µM | TGI (SF-268 CNS): 0.154 µM | GI50 (SF-539 CNS): 0.111 µM | TGI (SF-539 CNS): 0.239 µM | GI50 (DU-145 prostate): 0.0218 µM | TGI (DU-145 prostate): 0.0658 µM
